What all share (test): LDH Activity Assay
Holding throughout (settings): pH 7.4

For assay [1], the target named is L-lactate dehydrogenase B chain (Mus musculus, UniProt P16125). As to the method: (§1) Lactate dehydrogenase activity was determined by recording the absorbance change at 340 nm produced by the oxidation of NADH. Assays were performed at 37°C. The reagent mixture contained 0.115 mM NADH, 50 mM sodium phosphate buffer, pH 7.4, sodium pyruvate (0.31 mM for LDH-C4 and LDH-B4 and 1.25 mM for LDH-A4) and the enzyme preparation, diluted with phosphate buffer, pH 7.4, to provide a ΔE340 of 0.06-0.07 per minute when the activity was assayed in a 1-cm light path. For determination of dissociation constants, the isozymes, the inhibitors (oxamate or oxamate derivatives) and the coenzyme were incubated with the buffer used in the assay for 10 min at 37°C before adding the substrate.
Sequence of L-lactate dehydrogenase B chain (P16125 whole entry): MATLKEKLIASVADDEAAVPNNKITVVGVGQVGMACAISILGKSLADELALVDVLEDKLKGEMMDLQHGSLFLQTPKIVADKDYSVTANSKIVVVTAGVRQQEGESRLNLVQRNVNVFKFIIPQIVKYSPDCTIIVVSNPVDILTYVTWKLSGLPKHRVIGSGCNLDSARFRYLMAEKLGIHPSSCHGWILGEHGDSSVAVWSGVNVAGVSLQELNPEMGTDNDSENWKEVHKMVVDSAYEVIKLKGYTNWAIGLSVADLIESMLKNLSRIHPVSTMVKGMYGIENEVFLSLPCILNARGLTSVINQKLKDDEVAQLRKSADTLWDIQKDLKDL

For assay [2], the target named is L-lactate dehydrogenase C chain (Mus musculus, UniProt P00342). As for the experimental part: as §1
Sequence of L-lactate dehydrogenase C chain (P00342 whole entry): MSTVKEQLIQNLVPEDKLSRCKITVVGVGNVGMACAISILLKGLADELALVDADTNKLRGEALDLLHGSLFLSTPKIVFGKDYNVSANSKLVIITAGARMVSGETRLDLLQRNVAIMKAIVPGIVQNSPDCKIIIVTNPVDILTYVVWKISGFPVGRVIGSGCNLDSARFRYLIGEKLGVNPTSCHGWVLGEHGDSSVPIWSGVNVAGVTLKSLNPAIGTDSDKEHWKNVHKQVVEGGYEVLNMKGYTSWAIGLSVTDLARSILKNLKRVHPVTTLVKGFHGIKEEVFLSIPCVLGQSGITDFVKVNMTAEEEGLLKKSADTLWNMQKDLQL
The target of assay [3] is L-lactate dehydrogenase A chain (Mus musculus, UniProt P06151). As to the method: as §1

For orientation: Ki means the equilibrium dissociation constant of an inhibitor or competing ligand from its target. Lower therefore signals a stronger hold on the target. As to `CCCCNC(=O)C(=O)O` [N-Butyl oxamate], the Ki in assay [1] worked out at 7000 µM; in assay [2], 750 µM; in assay [3], 9100 µM.
As to `CCNC(=O)C(=O)O` [N-Ethyl oxamate], the Ki in assay [1] stood at 35 µM; in assay [2], 2 µM; in assay [3], 140 µM.
Turning to `CC(C)CNC(=O)C(=O)O` [N-Isobutyl oxamate], the Ki in assay [1] came to 7000 µM; in assay [2] it was 2000 µM; in assay [3], 6000 µM.
Turning to `CCCNC(=O)C(=O)O` [N-Propyl oxamate], the Ki in assay [1] stood at 887 µM; in assay [2] it was 12 µM; in assay [3], 1750 µM.
Turning to `CCC(C)NC(=O)C(=O)O` (stereo not drawn) [N-sec-Butyl oxamate], the Ki came to 14500 µM in assay [1], 400 µM in assay [2] and 12500 µM in assay [3].
On to `NC(=O)C(=O)O` [carbamoylformic acid], for which the Ki turned out to be 60 µM in assay [1], 30 µM in assay [2] and 80 µM in assay [3].

The record behind these values is BindingDB's records for doi:10.3109/14756366.2011.566221 (Instituto Politécnico Nacional, 2011).
